Results: ChEMBL document CHEMBL4406920, “Tetrazole as a Replacement of the Electrophilic Group in Characteristic Prolyl Oligopeptidase Inhibitors” (ACS Med Chem Lett, 2019)

Experiments:
[1] = biological target: Prolyl endopeptidase (Mus musculus, UniProt Q9QUR6); experiment: Inhibition of PREP in C57BL/6 mouse cortex homogenate assessed as formation of 7-amido-4-methylcoumarin using Suc-Gly-Pro-amido-4-methylcoumarin as substrate preincubated for 30 mins followed by substrate addition measured after 60 mins by fluorometric assay
[2] = biological target: Prolyl endopeptidase (Sus scrofa, UniProt P23687); experiment: Inhibition of recombinant porcine brain PREP expressed in Escherichia coli assessed as formation of 7-amido-4-methylcoumarin using Suc-Gly-Pro-amido-4-methylcoumarin as substrate preincubated for 30 mins followed by substrate addition measured after 60 mins by fluorometric assay
Chain of Prolyl endopeptidase (Sus scrofa, UniProt P23687) (P23687 whole entry): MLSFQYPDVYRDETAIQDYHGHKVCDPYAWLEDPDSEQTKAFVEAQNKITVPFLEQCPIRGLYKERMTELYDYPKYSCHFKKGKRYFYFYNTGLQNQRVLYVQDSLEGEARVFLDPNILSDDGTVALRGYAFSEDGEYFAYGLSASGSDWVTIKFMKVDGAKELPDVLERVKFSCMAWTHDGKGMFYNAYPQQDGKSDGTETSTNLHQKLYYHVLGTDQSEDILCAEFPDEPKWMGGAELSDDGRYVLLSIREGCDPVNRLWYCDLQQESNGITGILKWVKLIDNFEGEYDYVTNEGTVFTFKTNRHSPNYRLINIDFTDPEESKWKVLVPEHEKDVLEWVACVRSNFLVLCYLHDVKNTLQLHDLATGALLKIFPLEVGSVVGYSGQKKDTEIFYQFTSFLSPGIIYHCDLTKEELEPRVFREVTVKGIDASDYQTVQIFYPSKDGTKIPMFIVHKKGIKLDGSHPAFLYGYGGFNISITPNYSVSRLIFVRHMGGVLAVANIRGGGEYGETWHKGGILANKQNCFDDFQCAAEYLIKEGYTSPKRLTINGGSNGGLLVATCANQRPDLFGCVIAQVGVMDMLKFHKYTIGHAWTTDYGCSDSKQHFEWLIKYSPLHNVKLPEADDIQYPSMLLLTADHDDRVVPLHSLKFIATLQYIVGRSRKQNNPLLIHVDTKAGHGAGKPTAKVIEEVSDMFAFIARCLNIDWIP

Chain of Prolyl endopeptidase (Mus musculus, UniProt Q9QUR6) (Q9QUR6 whole entry): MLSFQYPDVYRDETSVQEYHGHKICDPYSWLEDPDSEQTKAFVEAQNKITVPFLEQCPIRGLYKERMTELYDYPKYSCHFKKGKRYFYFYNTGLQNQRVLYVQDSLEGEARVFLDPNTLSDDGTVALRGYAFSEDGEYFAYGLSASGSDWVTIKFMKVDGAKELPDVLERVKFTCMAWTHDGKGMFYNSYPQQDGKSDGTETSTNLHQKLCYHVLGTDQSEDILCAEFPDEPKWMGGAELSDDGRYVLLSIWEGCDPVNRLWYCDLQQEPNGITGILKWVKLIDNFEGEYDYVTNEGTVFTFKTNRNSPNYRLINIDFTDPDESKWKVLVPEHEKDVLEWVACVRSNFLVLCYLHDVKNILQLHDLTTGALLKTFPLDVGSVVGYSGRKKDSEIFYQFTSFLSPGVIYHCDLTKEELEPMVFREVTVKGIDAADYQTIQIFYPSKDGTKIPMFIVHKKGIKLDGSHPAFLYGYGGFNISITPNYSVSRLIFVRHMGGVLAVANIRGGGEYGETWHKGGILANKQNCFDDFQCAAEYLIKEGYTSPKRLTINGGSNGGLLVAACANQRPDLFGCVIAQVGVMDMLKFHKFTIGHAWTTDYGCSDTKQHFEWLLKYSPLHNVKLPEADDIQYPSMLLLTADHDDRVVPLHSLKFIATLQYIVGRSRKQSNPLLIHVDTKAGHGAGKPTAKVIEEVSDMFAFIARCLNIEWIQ

| SMILES | IC50 [1] [µM] | IC50 [2] [µM] |
| --- | --- | --- |
| CN(CC(=O)N1CCC[C@H]1C(N)=O)C(=O)CCCc1ccccc1 | 457 |  |
| NC(=O)[C@@H]1CCCN1C(=O)CNC(=O)CCCc1ccccc1 | 154 |  |
| O=C(CCCc1ccccc1)N1CCC[C@H]1C(=O)N1CCC[C@H]1c1nnn[nH]1 |  | 0.012 |
| C[C@@H](C(=O)N1CCC[C@H]1c1nnn[nH]1)N(C)C(=O)CCCc1ccccc1 |  | 27.2 |
| N#C[C@@H]1CCCN1C(=O)CNC(=O)CCCc1ccccc1 | 0.264 | 0.22 |
| C[C@@H](C(=O)N1CCC[C@H]1C#N)N(C)C(=O)CCCc1ccccc1 |  | 0.0054 |
| C[C@@H](C(=O)N1CCC[C@H]1C(N)=O)N(C)C(=O)CCCc1ccccc1 | 28.8 |  |
| C[C@H](NC(=O)CCCc1ccccc1)C(=O)N1CCC[C@H]1C(=O)O |  | 17.5 |
| CC(C)(NC(=O)CCCc1ccccc1)C(=O)N1CCCC1 | 13.5 |  |
| O=C(CCCc1ccccc1)NCC(=O)N1CCC[C@H]1c1nnn[nH]1 |  | 205 |
| NC(=O)[C@@H]1CCCN1C(=O)[C@@H]1CCCN1C(=O)CCCc1ccccc1 |  | 4.37 |
| CN(CC(=O)N1CCC[C@H]1c1nnn[nH]1)C(=O)CCCc1ccccc1 |  | 10.6 |
| C[C@H](NC(=O)CCCc1ccccc1)C(=O)N1CCC[C@H]1c1nnn[nH]1 | 0.091 |  |
| C[C@H](NC(=O)CCCc1ccccc1)C(=O)N1CCCC1 |  | 0.147 |
| CN(CC(=O)N1CCC[C@H]1C#N)C(=O)CCCc1ccccc1 |  | 0.269 |
| CN(CC(=O)N1CCCC1)C(=O)CCCc1ccccc1 | 5.14 |  |
| C[C@H](NC(=O)CCCc1ccccc1)C(=O)N1CCC[C@H]1C#N | 0.00328 | 0.00406 |
| C[C@@H](NC(=O)CCCc1ccccc1)C(=O)N1CCCC1 | 35.2 |  |
| O=C(O)[C@@H]1CCCN1C(=O)[C@@H]1CCCN1C(=O)CCCc1ccccc1 |  | 3.63 |
| C[C@@H](C(=O)N1CCCC1)N(C)C(=O)CCCc1ccccc1 | 0.298 |  |
| O=C(CCCc1ccccc1)NCCC(=O)N1CCCC1 | 12.1 |  |
| C[C@H](NC(=O)CCCc1ccccc1)C(=O)N1CCC[C@H]1C(N)=O | 6.21 |  |
